Data as given in PubChem BioAssay AID2060899 (Molecular Pharmacology Branch, DTP, NCI, 2025).

System: 565726-208-R1-J5-PDC complex spheroids, growth inhibition
Assay: Anticancer human tumor 565726-208-R1-J5-PDC patient-derived pancreatic adenocarcinoma cell line growth inhibition [RAS]
Conditions: for IC50: curve of first compound; for viability, T/C: stronger effect = lower value
Procedure, shortened: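 Tumour cells grown as complex spheroids with HUVEC endothelial cells and mesenchymal stem cells, treated with RAS pathway inhibitor combinations. Each agent spans half-log steps from near clinical Cmax, or 10 microM where Cmax is unknown.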

[1] = second compound 0.000949 µM, first compound 0.0316 µM
[2] = second compound 0.000949 µM, first compound 0.1 µM
[3] = second compound 0.000949 µM, first compound 0.316 µM
[4] = second compound 0.000949 µM, first compound 1 µM
[5] = second compound 0.003 µM, first compound 0.0316 µM
[6] = second compound 0.003 µM, first compound 0.1 µM
[7] = second compound 0.003 µM, first compound 0.316 µM
[8] = second compound 0.003 µM, first compound 1 µM
[9] = second compound 0.00949 µM, first compound 0.0316 µM
[10] = second compound 0.00949 µM, first compound 0.1 µM
[11] = second compound 0.00949 µM, first compound 0.316 µM
[12] = second compound 0.00949 µM, first compound 1 µM
[13] = second compound 0.03 µM, first compound 0.0316 µM
[14] = second compound 0.03 µM, first compound 0.1 µM
[15] = second compound 0.03 µM, first compound 0.316 µM
[16] = second compound 0.03 µM, first compound 1 µM
[17] = second compound 0.0949 µM, first compound 0.0316 µM
[18] = second compound 0.0949 µM, first compound 0.1 µM
[19] = second compound 0.0949 µM, first compound 0.316 µM
[20] = second compound 0.0949 µM, first compound 1 µM
[21] = second compound 0.3 µM, first compound 0.0316 µM
[22] = second compound 0.3 µM, first compound 0.1 µM
[23] = second compound 0.3 µM, first compound 0.316 µM
[24] = second compound 0.3 µM, first compound 1 µM
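Note: spheroids exposed to compounds for seven days before readout.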
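Throughout, for viability, T/C: 100% = DMSO vehicle control viability.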

CC1(O)CCCC1n1c(=O)c(C(F)F)cc2cnc(NC3CCN(S(C)(=O)=O)CC3)nc21 (stereo unspecified) + C#Cc1c(F)ccc2cc(O)cc(-c3ncc4c(N5CC6CCC(C5)N6)nc(OCC56CCCN5CC(F)C6)nc4c3F)c12
IC50 (second compound 0.0316 µM): 3320 nM | IC50 (second compound 0.1 µM): 3290 nM | IC50 (second compound 0.316 µM): 3900 nM | IC50 (second compound 1 µM): 1540 nM | IC50 (second compound 3.16 µM): 1140 nM | IC50 (second compound 10 µM): 606 nM | viability, T/C (second compound 0.0316 µM, first compound 0.0316 µM): 82.3% | viability, T/C (second compound 0.0316 µM, first compound 0.1 µM): 87.4% | viability, T/C (second compound 0.0316 µM, first compound 0.316 µM): 76.7% | viability, T/C (second compound 0.0316 µM, first compound 1 µM): 56.2% | viability, T/C (second compound 0.0316 µM, first compound 3.16 µM): 62.2% | viability, T/C (second compound 0.0316 µM, first compound 10 µM): 5.34% | viability, T/C (second compound 0.1 µM, first compound 0.0316 µM): 93.8% | viability, T/C (second compound 0.1 µM, first compound 0.1 µM): 103% | viability, T/C (second compound 0.1 µM, first compound 0.316 µM): 69.9% | viability, T/C (second compound 0.1 µM, first compound 1 µM): 65.9% | viability, T/C (second compound 0.1 µM, first compound 3.16 µM): 63.7% | viability, T/C (second compound 0.1 µM, first compound 10 µM): 4.76% | viability, T/C (second compound 0.316 µM, first compound 0.0316 µM): 91.6% | viability, T/C (second compound 0.316 µM, first compound 0.1 µM): 95% | viability, T/C (second compound 0.316 µM, first compound 0.316 µM): 75.6% | viability, T/C (second compound 0.316 µM, first compound 1 µM): 66.2% | viability, T/C (second compound 0.316 µM, first compound 3.16 µM): 69% | viability, T/C (second compound 0.316 µM, first compound 10 µM): 5.83% | viability, T/C (second compound 1 µM, first compound 0.0316 µM): 96% | viability, T/C (second compound 1 µM, first compound 0.1 µM): 93.9% | viability, T/C (second compound 1 µM, first compound 0.316 µM): 59.7% | viability, T/C (second compound 1 µM, first compound 1 µM): 55% | viability, T/C (second compound 1 µM, first compound 3.16 µM): 50.9% | viability, T/C (second compound 1 µM, first compound 10 µM): 5.01% | viability, T/C (second compound 3.16 µM, first compound 0.0316 µM): 88.4% | viability, T/C (second compound 3.16 µM, first compound 0.1 µM): 81.7% | viability, T/C (second compound 3.16 µM, first compound 0.316 µM): 55.6% | viability, T/C (second compound 3.16 µM, first compound 1 µM): 50% | viability, T/C (second compound 3.16 µM, first compound 3.16 µM): 46.4% | viability, T/C (second compound 3.16 µM, first compound 10 µM): 2.99% | viability, T/C (second compound 10 µM, first compound 0.0316 µM): 78.8% | viability, T/C (second compound 10 µM, first compound 0.1 µM): 67.1% | viability, T/C (second compound 10 µM, first compound 0.316 µM): 53.1% | viability, T/C (second compound 10 µM, first compound 1 µM): 43.9% | viability, T/C (second compound 10 µM, first compound 3.16 µM): 32.4% | viability, T/C (second compound 10 µM, first compound 10 µM): 0.3%

CC(=O)OC12COC1CC(O)C1(C)C(=O)C(O)C3=C(C)C(OC(=O)C(O)C(NC(=O)OC(C)(C)C)c4ccccc4)CC(O)(C(OC(=O)c4ccccc4)C21)C3(C)C (stereo unspecified) + CCn1c(-c2cc(N3CCN(C)CC3)cnc2C(C)OC)c2c3cc(ccc31)-c1csc(n1)CC(NC(=O)C1CC1C)C(=O)N1CCCC(N1)C(=O)OCC(C)(C)C2
IC50 (second compound 0.000949 µM): < 31.6 nM | IC50 (second compound 0.003 µM): < 31.6 nM | IC50 (second compound 0.00949 µM): < 31.6 nM | IC50 (second compound 0.03 µM): < 31.6 nM | IC50 (second compound 0.0949 µM): < 31.6 nM | IC50 (second compound 0.3 µM): < 31.6 nM | viability, T/C [1]: 20.3% | viability, T/C [2]: 17% | viability, T/C [3]: 19.2% | viability, T/C [4]: 17.7% | viability, T/C (second compound 0.000949 µM, first compound 3.16 µM): 20.2% | viability, T/C (second compound 0.000949 µM, first compound 10 µM): 20.8% | viability, T/C [5]: 20.4% | viability, T/C [6]: 17.7% | viability, T/C [7]: 17.2% | viability, T/C [8]: 15.5% | viability, T/C (second compound 0.003 µM, first compound 3.16 µM): 18.7% | viability, T/C (second compound 0.003 µM, first compound 10 µM): 18.4% | viability, T/C [9]: 17.9% | viability, T/C [10]: 17.1% | viability, T/C [11]: 14.7% | viability, T/C [12]: 16% | viability, T/C (second compound 0.00949 µM, first compound 3.16 µM): 17.6% | viability, T/C (second compound 0.00949 µM, first compound 10 µM): 15.2% | viability, T/C [13]: 14.5% | viability, T/C [14]: 13.7% | viability, T/C [15]: 11.5% | viability, T/C [16]: 14.5% | viability, T/C (second compound 0.03 µM, first compound 3.16 µM): 13.7% | viability, T/C (second compound 0.03 µM, first compound 10 µM): 13.6% | viability, T/C [17]: 11.7% | viability, T/C [18]: 13% | viability, T/C [19]: 14.6% | viability, T/C [20]: 12.5% | viability, T/C (second compound 0.0949 µM, first compound 3.16 µM): 14.1% | viability, T/C (second compound 0.0949 µM, first compound 10 µM): 11.3% | viability, T/C [21]: 10.4% | viability, T/C [22]: 10.5% | viability, T/C [23]: 11.4% | viability, T/C [24]: 11.3% | viability, T/C (second compound 0.3 µM, first compound 3.16 µM): 12% | viability, T/C (second compound 0.3 µM, first compound 10 µM): 10.4%

C=CC(=O)Nc1cc(Nc2nccc(-c3cn(C)c4ccccc34)n2)c(OC)cc1N(C)CCN(C)C + CCn1c(-c2cccnc2C(C)OC)c2c3cc(ccc31)N1CCOC(CC(NC(=O)C(C(C)C)N(C)C(=O)C3(F)CCN(C(=O)C#CC(C)(C)N(C)C)CC3)C(=O)N3CCCC(N3)C(=O)OCC(C)(C)C2)C1
IC50 (second compound 0.000949 µM): > 1000 nM | IC50 (second compound 0.003 µM): > 1000 nM | IC50 (second compound 0.00949 µM): > 1000 nM | IC50 (second compound 0.03 µM): > 1000 nM | IC50 (second compound 0.0949 µM): > 1000 nM | IC50 (second compound 0.3 µM): > 1000 nM | viability, T/C (second compound 0.000949 µM, first compound 0.00316 µM): 98.1% | viability, T/C (second compound 0.000949 µM, first compound 0.01 µM): 87.7% | viability, T/C [1]: 93.8% | viability, T/C [2]: 79.7% | viability, T/C [3]: 78.8% | viability, T/C [4]: 65.2% | viability, T/C (second compound 0.003 µM, first compound 0.00316 µM): 93.4% | viability, T/C (second compound 0.003 µM, first compound 0.01 µM): 91% | viability, T/C [5]: 89% | viability, T/C [6]: 77.1% | viability, T/C [7]: 76.4% | viability, T/C [8]: 57% | viability, T/C (second compound 0.00949 µM, first compound 0.00316 µM): 99.1% | viability, T/C (second compound 0.00949 µM, first compound 0.01 µM): 91.6% | viability, T/C [9]: 83.3% | viability, T/C [10]: 73.3% | viability, T/C [11]: 78% | viability, T/C [12]: 55.8% | viability, T/C (second compound 0.03 µM, first compound 0.00316 µM): 105% | viability, T/C (second compound 0.03 µM, first compound 0.01 µM): 107% | viability, T/C [13]: 94% | viability, T/C [14]: 81.9% | viability, T/C [15]: 83.3% | viability, T/C [16]: 62.2% | viability, T/C (second compound 0.0949 µM, first compound 0.00316 µM): 96% | viability, T/C (second compound 0.0949 µM, first compound 0.01 µM): 87% | viability, T/C [17]: 92.2% | viability, T/C [18]: 78.8% | viability, T/C [19]: 81.6% | viability, T/C [20]: 60.2% | viability, T/C (second compound 0.3 µM, first compound 0.00316 µM): 88.1% | viability, T/C (second compound 0.3 µM, first compound 0.01 µM): 78.3% | viability, T/C [21]: 86.5% | viability, T/C [22]: 72.7% | viability, T/C [23]: 70.8% | viability, T/C [24]: 55.7%
